# From patent US12459922B2 (Gilead Sciences, Inc., priority 2022, dated 2025)
# System: endogenous cellular STAT1 (phosphorylated at Tyr701) in NCI-H1373 cells
# Experiment: Phospho-STAT1 (Tyr701) LANCE Ultra TR-FRET Detection Assay
# Format: cell-based
# Conditions: Homo sapiens, NCI-H1373, 48 h, phospho-STAT1 (Tyr701) induction, read-out: NH1373 pSTAT1 EC50
row,EC50,Compound
1,42 nM,"COc1cnc(-c2cc3ncn(CCC[C@H](C)Nc4cn[nH]c(=O)c4C(F)(F)F)c(=O)c3cc2F)nc1N1CCC1 [Example 188, (S)-7-(4-(azetidin-1-yl)-5-methoxypyrimidin-2-yl)-6-fluoro-3-(4-((6-oxo-5-(trifluoromethyl)-1,6-dihydropyridazin-4-yl)amino)pentyl)quinazolin-4(3H)-one]"
2,14.7 nM,"C[C@@H](CCCn1cnc2cc(-c3ncc(C(F)(F)F)c(N4CCC4)n3)c(F)cc2c1=O)Nc1cn[nH]c(=O)c1C(F)(F)F [Example 189, (S)-7-(4-(azetidin-1-yl)-5-(trifluoromethyl)pyrimidin-2-yl)-6-fluoro-3-(4-((6-oxo-5-(trifluoromethyl)-1,6-dihydropyridazin-4-yl)amino)pentyl)quinazolin-4(3H)-one]"
3,29.9 nM,"C[C@@H](CCCn1cnc2cc(-c3ncc(C(F)(F)F)c(N4CC(C)(O)C4)n3)c(F)cc2c1=O)Nc1cn[nH]c(=O)c1C(F)(F)F [Example 190, (S)-6-fluoro-7-(4-(3-hydroxy-3-methylazetidin-1-yl)-5-(trifluoromethyl)pyrimidin-2-yl)-3-(4-((6-oxo-5-(trifluoromethyl)-1,6-dihydropyridazin-4-yl)amino)pentyl)quinazolin-4(3H)-one]"
4,26.9 nM,"C[C@@H](CCCn1ccc2cc(-c3ncc(C(F)(F)F)c(N4CC(C)(O)C4)n3)c(F)cc2c1=O)Nc1cn[nH]c(=O)c1C(F)(F)F [Example 191, (S)-7-fluoro-6-(4-(3-hydroxy-3-methylazetidin-1-yl)-5-(trifluoromethyl)pyrimidin-2-yl)-2-(4-((6-oxo-5-(trifluoromethyl)-1,6-dihydropyridazin-4-yl)amino)pentyl)isoquinolin-1(2H)-one]"
5,2.24 nM,"CCOc1cnc(-c2cc3ccn(CCC[C@H](C)Nc4cn[nH]c(=O)c4C(F)(F)F)c(=O)c3cc2F)nc1N [Example 192, (S)-6-(4-amino-5-ethoxypyrimidin-2-yl)-7-fluoro-2-(4-((6-oxo-5-(trifluoromethyl)-1,6-dihydropyridazin-4-yl)amino)pentyl)isoquinolin-1(2H)-one]"
6,22.3 nM,"CCOc1ccc(-c2cc3ccn(CCC[C@H](C)Nc4cn[nH]c(=O)c4C(F)(F)F)c(=O)c3cc2F)nc1N [Example 193, (S)-6-(6-amino-5-ethoxypyridin-2-yl)-7-fluoro-2-(4-((6-oxo-5-(trifluoromethyl)-1,6-dihydropyridazin-4-yl)amino)pentyl)isoquinolin-1(2H)-one]"
7,6.6 nM,"C[C@@H](CCCn1ccc2cc(-c3ncc(OC(F)F)c(N)n3)c(F)cc2c1=O)Nc1cn[nH]c(=O)c1C(F)(F)F [Example 194, (S)-6-(4-amino-5-(difluoromethoxy)pyrimidin-2-yl)-7-fluoro-2-(4-((6-oxo-5-(trifluoromethyl)-1,6-dihydropyridazin-4-yl)amino)pentyl)isoquinolin-1(2H)-one]"
8,8.14 nM,"COc1ccc(-c2cc3ccn(CCC[C@H](C)Nc4cn[nH]c(=O)c4C(F)(F)F)c(=O)c3cc2F)nc1N [Example 195, (S)-6-(6-amino-5-methoxypyridin-2-yl)-7-fluoro-2-(4-((6-oxo-5-(trifluoromethyl)-1,6-dihydropyridazin-4-yl)amino)pentyl)isoquinolin-1(2H)-one]"
9,6.13 nM,"[2H]C([2H])([2H])Oc1cnc(-c2cc3ccn(CCC[C@H](C)Nc4cn[nH]c(=O)c4C(F)(F)F)c(=O)c3cc2F)nc1N [Example 196, 6-[4-amino-5-(trideuteriomethoxy)pyrimidin-2-yl]-7-fluoro-2-[(4S)-4-[[6-oxo-5-(trifluoromethyl)-1H-pyridazin-4-yl]amino]pentyl]isoquinolin-1-one]"
10,638 nM,"C[C@@H](CCCn1ccc2cc(-c3nccc(C(F)F)n3)c(F)cc2c1=O)Nc1cn[nH]c(=O)c1C(F)(F)F [Example 197, (S)-6-(4-(difluoromethyl)pyrimidin-2-yl)-7-fluoro-2-(4-((6-oxo-5-(trifluoromethyl)-1,6-dihydropyridazin-4-yl)amino)pentyl)isoquinolin-1(2H)-one]"
